Numbered stars: 1 amine (or outer) side, 2 acyl side, 3 side chain; on linkers, the order of the positions; unused ones are H or OH. Square brackets hold non-standard residues; d marks the D form. Side chains are listed from the residue outwards. Peptide text beside a SMILES is read from it. * marks the point of attachment. DOTA(Lu)NH(CH2)6NHCOCH2 = O=C(CN1CCN2CCN3CCN(CC1)CC(=O)[O][Lu]([O]C(=O)C2)[O]C(=O)C3)NCCCCCCNC(=O)C*; X17 = O=C(CN1CCN2CCN3CCN(CC1)CC(=O)[O][Lu]([O]C(=O)C2)[O]C(=O)C3)NCCNC(=O)C*; DOTA(Lu) = O=C1CN2CCN3CCN(CC(=O)*)CCN(CC2)CC(=O)[O][Lu]([O]1)[O]C(=O)C3; Ala(piperidin-4-yl) = O=C([C@H](CC1CCN([*:3])CC1)N[*:1])[*:2]; dTrp(βS-Me) = C[C@@H](c1c[nH]c2ccccc12)[C@@H](N)C(=O)O; Phe(3-CONH2) = NC(=O)c1cccc(C[C@H](N)C(=O)O)c1; dTrp(6-F) = N[C@H](Cc1c[nH]c2cc(F)ccc12)C(=O)O; Phe(2-CONH2) = NC(=O)c1ccccc1C[C@H](N)C(=O)O; NOTA = O=C(O)CN1CCN(CC(=O)O)CCN(CC(=O)*)CC1; X22 = O=C([C@H](Cc1ccc(O)nc1)N[*:1])[*:2]; Dip = N[C@H](C(=O)O)C(c1ccccc1)c1ccccc1; X25 = O=C([C@H](CC1CNC1)N[*:1])[*:2]; Lys(iPr) = CC(C)NCCCC[C@H](N)C(=O)O; Ethylenediamine = C(CN[*:2])N[*:1]; mTyr = N[C@@H](Cc1cccc(O)c1)C(=O)O; Hyp = O=C(O)[C@@H]1C[C@@H](O)CN1; 4Pal = N[C@@H](Cc1ccncc1)C(=O)O; NMehCys = CN[C@@H](CCS)C(=O)O; NMeK = CN[C@@H](CCCCN)C(=O)O; NMeC = CN[C@@H](CS)C(=O)O; CO = O=C([*:1])[*:2]
Biological target: SSTR2 (Homo sapiens, UniProt P30874)
Sequence (P30874 whole entry): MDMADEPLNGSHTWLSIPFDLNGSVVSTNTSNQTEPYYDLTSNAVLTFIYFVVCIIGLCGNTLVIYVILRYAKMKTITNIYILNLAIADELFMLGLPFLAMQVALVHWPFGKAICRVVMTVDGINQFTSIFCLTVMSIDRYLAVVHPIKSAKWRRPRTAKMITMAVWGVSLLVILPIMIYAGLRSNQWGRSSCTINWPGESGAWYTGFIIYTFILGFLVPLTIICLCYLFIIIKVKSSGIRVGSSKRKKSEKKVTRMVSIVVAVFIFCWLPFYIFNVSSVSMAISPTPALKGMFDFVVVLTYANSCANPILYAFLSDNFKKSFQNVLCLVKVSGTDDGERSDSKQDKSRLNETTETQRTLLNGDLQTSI
Assay: SSTR binding affinity by radioligand binding competition assay ([125I]-Tyr11-Somatostatin, membrane extracts)
Settings: SSTR2 Ki, radioligand competition, [125I]-Tyr11-Somatostatin 0.1 nM, membrane extracts; Ki from IC50 by Cheng Prusoff

Compound	Ki [nM]
C[C@@H](O)[C@@H]1NC(=O)[C@H](CCCCN)NC(=O)[C@@H](Cc2c[nH]c3ccccc23)NC(=O)[C@H](Cc2ccc(O)cc2)NC(=O)[C@@H](CCSCC(=O)NCCCCCCNC(=O)CN2CCN3CCN4CCN(CC2)CC(=O)[O][Lu]([O]C(=O)C3)[O]C(=O)C4)N(C)C(=O)[C@H](Cc2ccccc2)NC1=O [RB-0005866]	1 to 3.33
C[C@@H](O)[C@@H]1NC(=O)[C@H](CCCCN)NC(=O)[C@@H](Cc2c[nH]c3ccccc23)NC(=O)[C@H](Cc2ccc(O)cc2)NC(=O)[C@H](CCCCNC(=O)COCCOCCNC(=O)CN2CCN3CCN4CCN(CC2)CC(=O)[O][Lu]([O]C(=O)C3)[O]C(=O)C4)N(C)C(=O)[C@H](Cc2ccccc2)NC1=O [RB-0003294]	1 to 3.33
C[C@@H](O)[C@@H]1NC(=O)[C@H](CCCCN)NC(=O)[C@@H](Cc2c[nH]c3ccccc23)NC(=O)[C@H](Cc2ccc(O)cc2)NC(=O)[C@H](CCCCNC(=O)COCCOCCOCCNC(=O)CN2CCN3CCN4CCN(CC2)CC(=O)[O][Lu]([O]C(=O)C3)[O]C(=O)C4)N(C)C(=O)[C@H](Cc2ccccc2)NC1=O [RB-0003248]	3.33 to 10

Same assay, conditions: radioligand competition, [125I]-Tyr11-Somatostatin 0.1 nM, membrane extracts; Ki from IC50 by Cheng Prusoff; read-out: SSTR2 Ki

Compound	Ki [nM]
C[C@@H](O)[C@@H]1NC(=O)[C@H](CC2CCNCC2)NC(=O)[C@@H]([C@@H](C)c2c[nH]c3ccccc23)NC(=O)[C@H](Cc2ccc(O)cc2)NC(=O)[C@H](CCCCNC(=O)CN2CCN3CCN4CCN(CC2)CC(=O)[O][Lu]([O]C(=O)C3)[O]C(=O)C4)N(C)C(=O)[C@H](Cc2cccc(O)c2)NC1=O [RB-0005985] (cyclo([NMeK](DOTA(Lu))Y[dTrp(βS-Me)][Ala(piperidin-4-yl)]T[mTyr]))	< 1
C[C@@H](O)[C@@H]1NC(=O)[C@H](CCCCN)NC(=O)[C@@H](Cc2c[nH]c3ccccc23)NC(=O)[C@H](Cc2ccc(O)cc2)NC(=O)[C@H](CCSCCC(=O)NCCCCC[C@H](NC(=O)CN2CCN3CCN4CCN(CC2)CC(=O)[O][Lu]([O]C(=O)C3)[O]C(=O)C4)C(=O)O)N(C)C(=O)[C@H](Cc2ccccc2)NC1=O [RB-0003375]	1 to 3.33
C[C@@H](O)[C@@H]1NC(=O)[C@H](CC2CNC2)NC(=O)[C@@H](Cc2c[nH]c3ccccc23)NC(=O)[C@H](Cc2ccc(O)cc2)NC(=O)[C@H](CCSCC(=O)NCCCCCCNC(=O)CN2CCN3CCN4CCN(CC2)CC(=O)[O][Lu]([O]C(=O)C3)[O]C(=O)C4)N(C)C(=O)[C@H](Cc2ccccc2)NC1=O [RB-0004866] (cyclo(F[NMehCys](DOTA(Lu)NH(CH2)6NHCOCH2)Y[dW][X25]T))	10 to 33.3
C[C@@H](O)[C@@H]1NC(=O)[C@H](CCCCN)NC(=O)[C@@H](Cc2c[nH]c3ccccc23)NC(=O)[C@H](Cc2cccc(C(N)=O)c2)NC(=O)[C@H](CCSCC(=O)NCCCCCCNC(=O)CN2CCN3CCN4CCN(CC2)CC(=O)[O][Lu]([O]C(=O)C3)[O]C(=O)C4)N(C)C(=O)[C@H](Cc2ccccc2)NC1=O [RB-0003302] (cyclo(F[NMehCys](DOTA(Lu)NH(CH2)6NHCOCH2)[Phe(3-CONH2)][dW]KT))	3.33 to 10
C[C@@H](O)[C@@H]1NC(=O)[C@H](CC2CCNCC2)NC(=O)[C@@H]([C@@H](C)c2c[nH]c3ccccc23)NC(=O)[C@H](Cc2ccc(O)cc2)NC(=O)[C@H](CCSCC(=O)NCCNC(=O)CN2CCN3CCN4CCN(CC2)CC(=O)[O][Lu]([O]C(=O)C3)[O]C(=O)C4)N(C)C(=O)[C@H](Cc2ccccc2)NC1=O [RB-0005990] (cyclo(F[NMehCys](X17)Y[dTrp(βS-Me)][Ala(piperidin-4-yl)]T))	< 1
C[C@@H](O)[C@@H]1NC(=O)[C@H](CCCCN)NC(=O)[C@@H](Cc2c[nH]c3ccccc23)NC(=O)[C@H](Cc2ccccc2C(N)=O)NC(=O)[C@H](CCSCC(=O)NCCCCCCNC(=O)CN2CCN3CCN4CCN(CC2)CC(=O)[O][Lu]([O]C(=O)C3)[O]C(=O)C4)N(C)C(=O)[C@H](Cc2ccccc2)NC1=O [RB-0003304] (cyclo(F[NMehCys](DOTA(Lu)NH(CH2)6NHCOCH2)[Phe(2-CONH2)][dW]KT))	3.33 to 10
CCN(C)CC(=O)[O][Lu]1[O]C(=O)CN(C)CCN(CCN(CC)CC(=O)NCCCCCCNC(=O)CCC[C@H]2C(=O)N[C@@H](CC3=CC=C(O)C=C3)C(=O)N[C@H](CC3=CNC4=C3C=CC=C4)C(=O)N[C@@H](CCCCN)C(=O)N[C@@H](C(C)C)C(=O)N[C@@H](CC3=CC=CC=C3)C(=O)N2C)CC(=O)[O]1 [RB-0002680] (HELM PEPTIDE1{F.[CN([C@@H](CCCC(=O)[*:3])C(=O)[*:2])[*:1]].Y.[dW].K.V}|CHEM1{[CCN(C)CC(=O)[O][Lu]1[O]C(=O)CN(C)CCN(CCN(CC)CC(=O)NCCCCCCN[*:1])CC(=O)[O]1]}$PEPTIDE1,CHEM1,2:R3-1:R1|PEPTIDE1,PEPTIDE1,1:R1-6:R2$$$V2.0)	1 to 3.33
C[C@@H](O)[C@@H]1NC(=O)[C@H](CCCCN)NC(=O)[C@@H](Cc2c[nH]c3ccccc23)NC(=O)[C@H](Cc2ccncc2)NC(=O)[C@H](CSCC(=O)NCCCCCCNC(=O)CN2CCN3CCN4CCN(CC2)CC(=O)[O][Lu]([O]C(=O)C3)[O]C(=O)C4)N(C)C(=O)[C@H](Cc2ccccc2)NC1=O [RB-0002947] (cyclo([4Pal][dW]KTF[NMeC](DOTA(Lu)NH(CH2)6NHCOCH2)))	3.33 to 10
C[C@@H](O)[C@@H]1NC(=O)[C@H](CC2CCNCC2)NC(=O)[C@@H]([C@@H](C)c2c[nH]c3ccccc23)NC(=O)[C@H](Cc2ccc(O)cc2)NC(=O)[C@H](CCCCNC(=O)CCC2C(=O)[O][Ga]3[O]C(=O)CN4CCN(CCN2CC4)CC(=O)[O]3)N(C)C(=O)[C@H](Cc2ccccc2)NC1=O (stereo partly shown) [RB-0006476]	3.33 to 10
CC(C)[C@@H]1NC(=O)[C@H](CCCCN)NC(=O)[C@@H](Cc2c[nH]c3ccccc23)NC(=O)[C@H](Cc2ccc(O)cc2)NC(=O)[C@H](CCSCC(=O)NCCCCCCNC(=O)CN2CCN3CCN4CCN(CC2)CC(=O)[O][Lu]([O]C(=O)C3)[O]C(=O)C4)N(C)C(=O)[C@H](C)NC1=O [RB-0005266] (cyclo(A[NMehCys](DOTA(Lu)NH(CH2)6NHCOCH2)Y[dW]KV))	< 1
C[C@@H]1NC(=O)[C@H]([C@@H](C)O)NC(=O)[C@H](CC2CCNCC2)NC(=O)[C@@H](Cc2c[nH]c3ccccc23)NC(=O)[C@H](C(c2ccccc2)c2ccccc2)NC(=O)[C@H](CCSCC(=O)NCCCCCCNC(=O)CN2CCN3CCN4CCN(CC2)CC(=O)[O][Lu]([O]C(=O)C3)[O]C(=O)C4)N(C)C1=O [RB-0005809] (cyclo(A[NMehCys](DOTA(Lu)NH(CH2)6NHCOCH2)[Dip][dW][Ala(piperidin-4-yl)]T))	1 to 3.33
C[C@@H](O)[C@@H]1NC(=O)[C@H](CN2CCNCC2)NC(=O)[C@@H]([C@@H](C)c2c[nH]c3ccccc23)NC(=O)[C@H](Cc2ccc(O)cc2)NC(=O)[C@H](CCCCNC(=O)CC[C@@H]2C(=O)[O][Ga]3[O]C(=O)CN4CCN(CCN2CC4)CC(=O)[O]3)N(C)C(=O)[C@H](Cc2ccccc2)NC1=O [RB-0006414]	1 to 3.33
C[C@@H](O)[C@@H]1NC(=O)[C@H](CCCCN)NC(=O)[C@@H](Cc2c[nH]c3ccccc23)NC(=O)[C@H](Cc2ccc(O)cc2)NC(=O)[C@H](CCSCC(=O)NCCCCCCNC(=O)CN2CCN3CCN4CCN(CC2)CC(=O)[O][Lu]([O]C(=O)C3)[O]C(=O)C4)N(C)C(=O)[C@H](Cc2ccc(O)nc2)NC1=O [RB-0003279] (cyclo(KT[X22][NMehCys](DOTA(Lu)NH(CH2)6NHCOCH2)Y[dW]))	3.33 to 10
C[C@@H](O)[C@@H]1NC(=O)[C@H](CC2CCNCC2)NC(=O)[C@@H]([C@@H](C)c2c[nH]c3ccccc23)NC(=O)[C@H](Cc2ccc(O)cc2)NC(=O)[C@@H]2C[C@@H](OC(=O)NCCNC(=O)CN3CCN4CCN5CCN(CC3)CC(=O)[O][Lu]([O]C(=O)C4)[O]C(=O)C5)CN2C(=O)[C@H](Cc2ccccc2)NC1=O [RB-0006395] (cyclo(F[Hyp]([CO-Ethylenediamine-DOTA(Lu)])Y[dTrp(βS-Me)][Ala(piperidin-4-yl)]T))	< 1
C[C@@H](O)[C@@H]1NC(=O)[C@H](CC2CCNCC2)NC(=O)[C@@H]([C@@H](C)c2c[nH]c3ccccc23)NC(=O)[C@H](Cc2ccc(O)cc2)NC(=O)[C@H](CCCCNC(=O)CN2CCN(CC(=O)O)CCN(CC(=O)O)CC2)N(C)C(=O)[C@H](Cc2ccccc2)NC1=O [RB-0006286] (cyclo([NMeK](NOTA)Y[dTrp(βS-Me)][Ala(piperidin-4-yl)]TF))	1 to 3.33
C[C@@H](O)[C@@H]1NC(=O)[C@H](CCCCN)NC(=O)[C@@H](Cc2c[nH]c3ccccc23)NC(=O)[C@H](Cc2ccc(O)cc2)NC(=O)[C@H](CCSCC(=O)NCCOCCOCCNC(=O)CN2CCN3CCN4CCN(CC2)CC(=O)[O][Lu]([O]C(=O)C3)[O]C(=O)C4)N(C)C(=O)[C@H](Cc2ccccc2)NC1=O [RB-0005272]	< 1
CC(C)NCCCC[C@@H]1NC(=O)[C@@H]([C@@H](C)c2c[nH]c3ccccc23)NC(=O)[C@H](Cc2ccc(O)cc2)NC(=O)[C@H](CCSCC(=O)NCCCCCCNC(=O)CN2CCN3CCN4CCN(CC2)CC(=O)[O][Lu]([O]C(=O)C3)[O]C(=O)C4)N(C)C(=O)[C@H](Cc2ccccc2)NC(=O)[C@H]([C@@H](C)O)NC1=O [RB-0006011] (cyclo(F[NMehCys](DOTA(Lu)NH(CH2)6NHCOCH2)Y[dTrp(βS-Me)][Lys(iPr)]T))	1 to 3.33
C[C@@H](O)[C@@H]1NC(=O)[C@H](CCCCN)NC(=O)[C@@H](Cc2c[nH]c3cc(F)ccc23)NC(=O)[C@H](Cc2ccc(O)cc2)NC(=O)[C@H](CCSCC(=O)NCCCCCCNC(=O)CN2CCN3CCN4CCN(CC2)CC(=O)[O][Lu]([O]C(=O)C3)[O]C(=O)C4)N(C)C(=O)[C@H](Cc2ccccc2)NC1=O [RB-0003309] (cyclo(F[NMehCys](DOTA(Lu)NH(CH2)6NHCOCH2)Y[dTrp(6-F)]KT))	< 1
C[C@@H](O)[C@@H]1NC(=O)[C@H](CC2CCNCC2)NC(=O)[C@@H](Cc2c[nH]c3ccccc23)NC(=O)[C@H](Cc2ccc(O)cc2)NC(=O)[C@H](CCCCNC(=O)CN2CCN3CCN4CCN(CC2)CC(=O)[O][Lu]([O]C(=O)C3)[O]C(=O)C4)N(C)C(=O)[C@H](Cc2ccc(O)cc2)NC1=O [RB-0005983] (cyclo([NMeK](DOTA(Lu))Y[dW][Ala(piperidin-4-yl)]TY))	3.33 to 10
